This note sets out measurements from US20150093398A1, “Methods and Compositions for Treating or Preventing Cancer” (MERCK SHARP & DOHME CORP., priority 2005, published 2015).

Assay [1] deals with SK-N-MC neuroblastoma cells. Briefly: SK-N-MC neuroblastoma xenograft tumor growth in mice (04 IGFR-13, 19D12 vs. Cisplatin). The format is in vivo, Athymic nude mice. The conditions noted are these: Cisplatin 2 mpk.
The test system of assay [2] is Hs700T malignant pancreatic cells. Briefly: Hs700T pancreatic xenograft tumor growth in mice (04 IGFR-16, 19D12 and Gemzar combination).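 Further: subcutaneous flank xenografts in athymic nude mice, treated once tumors averaged 100 mm^3, antibody given intraperitoneally twice weekly, tumor size measured by calipers.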
Method: (§1) Athymic nude mice were inoculated with tumor cells in the right flank, subcutaneously, along with Matrigel (1:1 cells:gel). In these experiments, 5×10^6 cells/mouse in a 1:1 mix with regular matrigel were inoculated subcutaneously. Tumor size was measured with calipers and the data was entered into the labcat program. Mice were grouped with average size of 100 mm^3. Tumor size and body weight were measured twice weekly.
(§2) In these experiments, mice were dosed twice per week, intraperitoneally (i.p.) with antibody 19D12 and chemotherapeutic agents at the indicated frequency. Tumor size and mouse body weight was measured twice weekly after treatment.
Assay [3] deals with SJSA-1 osteosarcoma cells. Briefly: SJSA-1 osteosarcoma xenograft model (05-IGFR-12), dosing from day 18 post inoculation. The format is in vivo, female nude mouse (strain NU/NU). Conditions: 100 mpk Cytoxan. As to the method: About 7 million SJSA-1 osteosarcoma cells were inoculated subcutaneously to the flank of each female nude mouse (strain NU/NU from Charles River, age ˜6 wks-old, average weight ˜20 gram). For the experiment set forth in Table 8, dosing was initiated on day 18 post inoculation, when the xenograft tumor reached an average size of about 100 mm^3. Anti-IGF1R antibody (19D12 Light chain F/Heavy chain A (as set forth above)) was given ip twice a week at the dose of either 0.02 mg, 0.1 and 0.5 mg per mouse, while cytotoxic Cytoxan (cyclophosphamide) was given ip twice per week at the dose of 100 mpk for a total of 3 injection during the course of the study. Xenograft tumor size was measured twice per week with a caliper and captured electronically by the LabCat program.

The subject of assay [4] is SK-N-AS neuroblatoma cells. Briefly: SK-N-AS neuroblastoma xenograft tumor growth in mice (03 IGFR-09, 19D12 vs. Cytoxan). The format is in vivo, Athymic nude mice. Conditions: 100 mpk Cytoxan.
Method: as §1, §2
The test system of assay [5] is SJSA-1 osteosarcoma cells. Briefly: SJSA-1 osteosarcoma xenograft model (05-IGFR-21), dosing from 15 days after inoculation. Type of assay: in vivo, female nude mouse (strain NU/NU). As to the method:
Xenograft tumor size was measured twice per week with a caliper and captured electronically by the LabCat program. […] For the experiments set forth in Table 9, dosing was initiated 15 days after inoculation. […] Xenograft tumor size was measured twice per week with a caliper and captured electronically by the LabCat program.

Assay [6] relates to SJCRH30 rhabdomyosarcoma cells. Briefly: SJCRH30 rhabdomyosarcoma xenograft tumor growth in mice (05 IGFR-01, 19D12 and Cytoxan). Type of assay: in vivo, Athymic nude mice. The conditions noted are these: 100 mpk Cytoxan.
Method: as §1, §2

As for `N.N.[Cl][Pt][Cl]` [Cisplatin, cisplatin, reference compound], the “Tumor Average Size” value in assay [1] (Day 0) stood at 99 mm^3; in assay [1] (Day 2), 131 mm^3; in assay [1] (Day 6), 174 mm^3; in assay [1] (Day 9) it was 212 mm^3; in assay [1] (Day 13) it was 264 mm^3; in assay [1] (Day 16), 288 mm^3. The “Tumor Average Size” value was found to be 299 mm^3 in assay [1] (Day 20); 352 mm^3 in assay [1] (Day 23); 352 mm^3 in assay [1] (Day 24); 79 mm^3 in assay [2] (5 mpk Cisplatin, Day 0); 87 mm^3 in assay [2] (5 mpk Cisplatin, Day 4); 96 mm^3 in assay [2] (5 mpk Cisplatin, Day 7). For the same compound, the “Tumor Average Size” value came out at 99 mm^3 in assay [2] (5 mpk Cisplatin, Day 11); 100 mm^3 in assay [2] (5 mpk Cisplatin, Day 14); 107 mm^3 in assay [2] (5 mpk Cisplatin, Day 18); 113 mm^3 in assay [2] (5 mpk Cisplatin, Day 21); 155 mm^3 in assay [2] (5 mpk Cisplatin, Day 26); 175 mm^3 in assay [2] (5 mpk Cisplatin, Day 29). Also, the “Tumor Average Size” value in assay [2] (5 mpk Cisplatin, Day 33) stood at 185 mm^3; in assay [2] (5 mpk Cisplatin, Day 36), 173 mm^3.
For `Cl.Nc1ccn(C2OC(CO)C(O)C2(F)F)c(=O)n1` (stereo not drawn) [Gemzar, gemcitabine, reference compound], the “Tumor Average Size” value was found to be 77 mm^3 in assay [2] (100 mpk Gemzar, Day 0); 86 mm^3 in assay [2] (100 mpk Gemzar, Day 4); 98 mm^3 in assay [2] (100 mpk Gemzar, Day 7); 105 mm^3 in assay [2] (100 mpk Gemzar, Day 11); 119 mm^3 in assay [2] (100 mpk Gemzar, Day 14); 148 mm^3 in assay [2] (100 mpk Gemzar, Day 18). Also, the “Tumor Average Size” value was 166 mm^3 in assay [2] (100 mpk Gemzar, Day 21); 249 mm^3 in assay [2] (100 mpk Gemzar, Day 26); 284 mm^3 in assay [2] (100 mpk Gemzar, Day 29); 324 mm^3 in assay [2] (100 mpk Gemzar, Day 33); 368 mm^3 in assay [2] (100 mpk Gemzar, Day 36).
Take `O=P1(N(CCCl)CCCl)NCCCO1` (stereo not drawn) [Cytoxan, cyclophosphamide, reference compound]: the “Mean Tumor size” value was 96 mm3 in assay [3] (Day 0); 111 mm3 in assay [3] (Day 3); 102 mm3 in assay [3] (Day 7); 59 mm3 in assay [3] (Day 10); 140 mm3 in assay [3] (Day 14); 172 mm3 in assay [3] (Day 17). In addition, the “Mean Tumor size” value amounted to 302 mm3 in assay [3] (Day 21); 586 mm3 in assay [3] (Day 24); 972 mm3 in assay [3] (Day 28); 145 mm3 in assay [5] (50 mpk Cytoxan, Day 0); 198 mm3 in assay [5] (50 mpk Cytoxan, Day 4); 287 mm3 in assay [5] (50 mpk Cytoxan, Day 7). In addition, the “Mean Tumor size” value in assay [5] (50 mpk Cytoxan, Day 11) stood at 614 mm3; in assay [5] (50 mpk Cytoxan, Day 14) it was 908 mm3; in assay [5] (100 mpk Cytoxan, Day 0) it was 149 mm3; in assay [5] (100 mpk Cytoxan, Day 4) it was 132 mm3; in assay [5] (100 mpk Cytoxan, Day 7), 193 mm3; in assay [5] (100 mpk Cytoxan, Day 11) it was 218 mm3. In addition, in assay [5] (100 mpk Cytoxan, Day 14), the “Mean Tumor size” value was found to be 285 mm3. In addition, the “Tumor Average Size” value in assay [4] (Day 4) is 257 mm^3; in assay [4] (Day 7) it was 227 mm^3; in assay [4] (Day 11), 111 mm^3; in assay [4] (Day -1), 122 mm^3; in assay [6] (Day 0) it was 75 mm^3; in assay [6] (Day 4) it was 125 mm^3. Also, the “Tumor Average Size” value is 232 mm^3 in assay [6] (Day 7), 347 mm^3 in assay [6] (Day 11), 591 mm^3 in assay [6] (Day 14) and 733 mm^3 in assay [6] (Day 18).
